{"source": "patent US7618984B2", "about": "“Sulfonamide compound” (Asahi Kasei Pharma Corporation, priority 2005, dated 2009)", "key": {"[1]": {"tested_on": "rabbit normal intraocular pressure", "assay": "Intraocular pressure reducing action (Test Example 2)", "type": "in vivo, Japanese white rabbit", "conditions": "Oryctolagus cuniculus, topical; 3 mM aqueous solution, 50 μl to the left eye; measured after 2, 4 and 6 hours; read-out: intraocular pressure reducing degree (max ΔIOP / intraocular pressure value immediately before administration × 100)", "procedure": "A Japanese white rabbit having a body weight of about 2 kg was placed in a positioner and naturalized for one week before the experiment. An opthalmologic local anesthesant (Benoxil) was administered to both eyes, and then intraocular pressure was measured by using a tonometer (Classic 30, Solan). A 3 mM aqueous solution of a test compound was administered in a volume of 50 μl to the left eye, and the right eye was not treated (control eye). The intraocular pressure values were measured for the left and right eyes immediately before, and 2, 4 and 6 hours after the administration of the aqueous solution of the test compound, and the difference of the measured values for the left and right eyes was considered an intraocular pressure reduction value of the test medicament at each measurement time. The largest difference of the values for the left and right eyes among the measured values at the measurement times (after 2, 4 and 6 hours) was considered the maximum intraocular pressure reduction value (max ΔIOP) of each test medicament. The intraocular pressure reducing degree representing the intraocular pressure reducing action of each test medicament was calculated according to the following formula. Since rabbits show significant daily variation of intraocular pressure, daily variation is added when change of intraocular pressure is measured over time, and the intraocular pressure reducing action may be overestimated. Therefore, we used this calculation method of intraocular pressure reduction value in order to minimize the influence of the variation. Intraocular pressure reducing degree (%)=(max ΔIOP/Intraocular pressure value immediately before administration)×100"}, "[2]": {"tested_on": "rabbit intraocular pressure", "assay": "Rabbit intraocular pressure reduction enhancing action, combination use (Test Example 6-1)", "type": "in vivo, Japanese white rabbit", "conditions": "50 μL, difference of left and right eyes, 2, 4 and 6 hours", "procedure": "However, the effect is not limited to the 19-1 compound, and the ophthalmic solution concentration of the 19-1 compound is not limited to those used in this test example. Moreover, as for the test compound used for combination use, similar effect can be obtained also with the compounds of the present invention represented with the example numbers mentioned in Test Example 2.\nAs a test compound, the 19-1 compound was dissolved in physiological saline, and the solution was neutralized by addition of sodium hydroxide (pH 7.0 to 8.0) to prepare a 0.01 weight % aqueous solution (19-1 compound aqueous solution). As the drugs for combination use, isopropyl unoprostone (trade name: Rescula, Santen Pharmaceutical) was used as a prostaglandin-related drug, and brinzolamide hydrochloride (trade name: Azopt, Alcon Japan) was used as […], as the marketed formulations as they were.\nA Japanese white rabbit having a body weight of about 2 kg was placed in a positioner and naturalized for one week before the experiment. An opthalmologic local anesthesant (Benoxil) was administered to both eyes, and then intraocular pressure before instillation was measured by using a tonometer (Classic 30, Solan). A test aqueous solution or the drug for combination use was administered to the left eye, and the right eye was not treated (control eye). The test groups consisted of (1) control group, (2) group instilled only with the 19-1 compound aqueous solution (single drug group 1), (3) group instilled only with the drug for combination use (single drug group 2), and (4) group instilled with the drug for combination use and the 19-1 compound aqueous solution (combination use group), and six rabbits were used for each group. As for the rabbits of these groups, 50 μL of physiological saline was first instilled to the control group, single drug group 1, and single drug group 2, and the drug for combination use was first instilled in the same volume to the combination use group. […] The intraocular pressure thereafter was measured for each group 2, 4 and 6 hours after the second administration of the test compound, and the difference of the measured values for the left and right eyes at each measurement time was considered an intraocular pressure reduction value of each group. The largest difference of the intraocular pressure values for the left and right eyes among those of the measured values of the measurement times was considered the maximum intraocular pressure reduction value (max ΔIOP) of each drug group."}, "[3]": {"tested_on": "monkey intraocular pressure", "assay": "Intraocular pressure reduction enhancing action in monkey (Test Example 7)", "type": "in vivo", "conditions": "cynomolgus monkey", "procedure": "Moreover, as for the test compound used for combination use, similar effect can be obtained also with the compounds of the present invention represented with the example numbers mentioned in Test Example 2. The test is performed by using cynomolgus monkeys sufficiently naturalized for the operation of fixation on a monkey chair and ophathalmotonometry.\nAs the test compound, the 19-1 compound is dissolved in physiological saline, and the solution is neutralized by addition of sodium hydroxide (pH 7.0 to 8.0) to prepare a 0.01 weight % aqueous solution (19-1 compound aqueous solution). As a drug for combination use, latanoprost (trade name: Xalatan, Pfizer) is used as the marketed formulation per se. The test aqueous solution or the drug for combination use is instilled to the left eye, and the right eye is not treated (control eye). […] After initial intraocular pressure values of the monkeys are measured for each group, 30 μL of physiological saline is instilled to the control group, single drug group 1, and single drug group 2, and latanoprost is instilled in the same volume to the combination use group. […] Then, the intraocular pressure is measured over time for each group."}}, "data": [{"smiles": "N[C@H]1CCN(S(=O)(=O)c2cccc3cncc(Cl)c23)C1", "note": "[Example 19-1, (S)-3-Amino-1-(4-chloro-5-isoquinolinesulfonyl)pyrrolidine]", "values": [{"measurement": "inhibition in vivo at 3000 µM", "setting": "[1]", "result": "≥ 20", "unit": "%"}, {"measurement": "Max ΔIOP (maximum intraocular pressure reduction value), Table 2", "setting": "[2]; 0.01 weight % 19-1 compound aqueous solution and/or brinzolamide hydrochloride (Azopt)", "result": 4.3, "unit": "mmHg"}, {"measurement": "Max ΔIOP (maximum intraocular pressure reduction value), Table 3", "setting": "[2]; 0.01 weight % 19-1 compound aqueous solution and/or isopropyl unoprostone (Rescula)", "result": 4.3, "unit": "mmHg"}, {"measurement": "intraocular pressure reducing action in the single drug group 1", "setting": "[3]; 0.01 weight % aqueous solution, 30 μL", "result": "exceeding that of the control group"}, {"measurement": "intraocular pressure reducing action in the combination use group", "setting": "[3]; latanoprost (Xalatan) 30 μL, 5 minutes later 19-1 compound aqueous solution 30 μL", "result": "exceeding those of both the single drug group 1 and single drug group 2"}]}]}
